Counter-ions that a name gives are not always drawn.
The compounds below were run against T1, ACC1 from rat liver (Rattus norvegicus, UniProt P11497) (assay: Direct inhibition of ACC1 activity (14C-bicarbonate incorporation)). Conditions: ACC1 from rat liver.
T1 construct: The livers (for ACC1 preparation) or skeletal muscle tissue (for ACC2 preparation) are removed; from tissue; host or cells: liver of male CD rats (fasted, then fed a high sucrose diet)
Format: biochemical
Procedure: [1] Preparation of ACC1 and ACC2.
Male CD rats weighing 150-200 g are fasted for 2 days and then fed a high sucrose diet (AIN-76A rodent diet; Cat # D10001, Research Diets Inc., New Brunswick, N.J.), for 3 days at which time they are sacrificed by CO2 asphyxiation. The livers (for ACC1 preparation) or skeletal muscle tissue (for ACC2 preparation) are removed, rinsed in ice-cold phosphate-buffered saline (PBS), and homogenized in 5 volumes of homogenization buffer (50 mM potassium phosphate, pH 7.5, 10 mM EDTA, 10 mM 2-mercaptoethanol, 2 mM benzamidine, 0.2 mM phenylmethylsulfonylfluoride (PMSF), 5 mg/L each leupeptin, aprotinin, and antitrypsin) in a Waring® blender for 1 minute at 4° C. All subsequent operations are carried out at 4° C. The homogenate is made 3% with respect to polyethylene glycol (PEG) by the addition of 50% PEG solution and centrifuged at 20,000×g for 15 minutes. The resulting supernatant is adjusted to 5% PEG with the addition of 50% PEG solution and stirred for 5 minutes. The pellet (contains ACC activity) is collected by centrifugation at 20,000×g for 20 minutes, rinsed with Ice-cold doubly distilled water to remove excess PEG and re-suspended in one-fourth the original homogenate volume with homogenization buffer. Ammonium sulfate (200 g/liter) is slowly added with stirring. After 45 minutes the enzyme is collected by centrifugation for 30 minutes at 20,000×g, re-suspended in 10 ml of 50 mM HEPES, pH7.5, 0.1 mM DTT, 1.0 mM EDTA, and 10% glycerol and desalted on a Sephadex™ G-25 column (2.5 cm-x 50 cm) (Pharmacia, Piscataway N.J. now GE Healthcare) […] equilibrated with the same buffer. The desalted enzyme preparation is stored in aliquots at −70° C. Immediately prior to use, frozen ACC1 or ACC2 aliquots are thawed, diluted to 500 μg/ml in buffer containing 50 mM HEPES, pH7.5, 1.0 mM MgCl2, 10 mM tripotassium citrate, 2.0 mM dithiothreitol (DTT), and 0.75 mg/ml fatty acid-free bovine serum albumin (BSA) and pre-incubated at 37° C. for 30 minutes.
[2] Measurement of ACC inhibition. The procedures for measuring ACC1 inhibition and ACC2 inhibition are identical except for the source of the isozyme. For measurement of ACC activity and assessment of ACC inhibition, test compounds are dissolved in dimethylsulfoxide (DMSO) and 1 μL aliquots are placed in 0.5 ml polypropylene tubes. Control tubes contain 1 μL of DMSO alone. Tubes are incubated at 37° C. in a constant temperature water bath. […] The reaction is then initiated by the addition of 10 μL of preincubated ACC fraction prepared as described above. After 7 minutes the reaction is terminated by the addition of 50 μL of 6N HCl and a 150 μL aliquot of the reaction mixture is transferred to glass scintillation vials and evaporated to dryness at 90° C. for at least 1 hour. The dried vials are then cooled, 0.5 ml of water and 5.5 ml of Ready Safe liquid scintillation fluid (Beckman Coulter Inc., Fullerton, Calif.) are added, and the radioactivity is determined using a liquid scintillation counter. Tubes that received HCl before ACC served as blanks.

SMILES	IC50
Cc1cc2c(cc1C)C(=O)CC1(CCN(C(=O)c3ccc4cnn(C)c4c3)CC1)O2 [Ex. G2, 6,7-dimethyl-1′-[(1-methyl-1H-indazol-6-yl)carbonyl]spiro[chromene-2,4′-piperidin]-4(3H)-one]	167 nM
Cc1cc2c(cc1C)C(=O)CC1(CCN(C(=O)c3ccc4c(C)nn(C)c4c3)CC1)O2 [Ex. G3, 1′-[(1,3-dimethyl-1H-indazol-6-yl)carbonyl]-6,7-dimethylspiro[chromene-2,4′-piperidin]-4(3H)-one]	75.4 nM
CCc1nn(C)c2cc(C(=O)N3CCC4(CC3)CC(=O)c3cc(C)c(C)cc3O4)ccc12 [Ex. G4, 1′-[(3-ethyl-1-methyl-1H-indazol-6-yl)carbonyl]-6,7-dimethylspiro[chromene-2,4′-piperidin]-4(3H)-one]	80.1 nM
Cc1cc2c(cc1C)C(=O)CC1(CCN(C(=O)c3cccc4cn[nH]c34)CC1)O2 [Ex. H1, 1′-(1H-indazol-7-ylcarbonyl)-6,7-dimethylspiro[chromene-2,4′-piperidin]-4(3H)-one]	163 nM
Cc1cc2c(cc1Cl)OC1(CCN(C(=O)c3cccc4cn[nH]c34)CC1)CC2=O [Ex. H2, 7-chloro-1′-(1H-indazol-7-ylcarbonyl)-6-methylspiro[chromene-2,4′-piperidin]-4(3H)-one]	226 nM
Cc1cc2c(cc1Br)C(=O)CC1(CCN(C(=O)c3cccc4cn[nH]c34)CC1)O2 [Ex. H3, 6-bromo-1′-(1H-indazol-7-ylcarbonyl)-7-methylspiro[chromene-2,4′-piperidin]-4(3H)-one]	264 nM
COc1cc(C)cc2c1C(=O)CC1(CCN(C(=O)c3cccc4cn[nH]c34)CC1)O2 [Ex. H4, 1′-(1H-indazol-7-ylcarbonyl)-5-methoxy-7-methylspiro[chromene-2,4′-piperidin]-4(3H)-one]	279 nM
Cc1cc2c(cc1Cl)C(=O)CC1(CCN(C(=O)c3cccc4cn[nH]c34)CC1)O2 [Ex. H5, 6-chloro-1′-(1H-indazol-7-ylcarbonyl)-7-methylspiro[chromene-2,4′-piperidin]-4(3H)-one]	321 nM
COc1ccc2c(c1F)C(=O)CC1(CCN(C(=O)c3cccc4cn[nH]c34)CC1)O2 [Ex. H6, 5-fluoro-1′-(1H-indazol-7-ylcarbonyl)-6-methoxyspiro[chromene-2,4′-piperidin]-4(3H)-one]	381 nM
COc1ccc2c(c1)C(=O)CC1(CCN(C(=O)c3cccc4cn[nH]c34)CC1)O2 [Ex. H7]	562 nM
Cc1cc2c(c(C)c1Cl)C(=O)CC1(CCN(C(=O)c3cccc4cn[nH]c34)CC1)O2 [Ex. H8, 6-chloro-1′-(1H-indazol-7-ylcarbonyl)-5,7-dimethylspiro[chromene-2,4′-piperidin]-4(3H)-one]	590 nM
CC(C)c1ccc2c(c1)C(=O)CC1(CCN(C(=O)c3cccc4cn[nH]c34)CC1)O2 [Ex. H10, 1′-(1H-indazol-7-ylcarbonyl)-6-isopropylspiro[chromene-2,4-piperidin]-4(3H)-one]	693 nM
COc1cc2c(c(OC)c1OC)C(=O)CC1(CCN(C(=O)c3cccc4cn[nH]c34)CC1)O2 [Ex. H11, 1′-(1H-indazol-7-ylcarbonyl)-5,6,7-trimethoxyspiro[chromene-2,4′-piperidin]-4(3H)-one]	756 nM
Cc1ccc2c(c1)OC1(CCN(C(=O)c3cccc4cn[nH]c34)CC1)CC2=O [Ex. H12, 1′-(1H-indazol-7-ylcarbonyl)-7-methylspiro[chromene-2,4-piperidin]4(3H)-one]	850 nM
Cc1cc(C)c2c(c1)C(=O)CC1(CCN(C(=O)c3cccc4cn[nH]c34)CC1)O2 [Ex. H13, 1′-(1H-indazol-7-ylcarbonyl)-6,8-dimethylspiro[chromen-2,4′-piperidin]-4(3H)-one]	1320 nM
O=C1CC2(CCN(C(=O)c3cccc4cn[nH]c34)CC2)Oc2ccc(Cl)cc21 [Ex. H14, 6-chloro-1′-(1H-indazol-7-ylcarbonyl)spiro[chromene-2,4′-piperidin]-4(3H)-one]	1390 nM

SMILES	IC50
COc1cccc2c1C(=O)CC1(CCN(C(=O)c3cccc4cn[nH]c34)CC1)O2 [Ex. H16]	1620 nM
COc1c(Cl)ccc2c1C(=O)CC1(CCN(C(=O)c3cccc4cn[nH]c34)CC1)O2 [Ex. H17, 6-chloro-1′-(1H-indazol-7-ylcarbonyl)-5-methoxyspiro[chromene-2,4′-piperidin]-4(3H)-one]	1830 nM
O=C1CC2(CCN(C(=O)c3cccc4cn[nH]c34)CC2)Oc2cc(-c3ccccc3)ccc21 [Ex. H18, 1′-(1H-indazol-7-ylcarbonyl)-7-phenylspiro[chromene-2,4′-piperidin]-4(3H)-one]	2210 nM
O=C1CC2(CCN(C(=O)c3cccc4cn[nH]c34)CC2)Oc2cc(F)ccc21 [Ex. H19, 7-fluoro-1′-(1H-indazol-7-ylcarbonyl)spiro[chromene-2,4′-piperidin]-4(3H)-one]	2350 nM
COc1cccc2c1C(=O)CC1(CCN(C(=O)c3cccc4cn[nH]c34)CC1)O2 [Ex. H20, 1′-(1H-indazol-7-ylcarbonyl)-5-methoxyspiro[chromene-2,4′-piperidin]-4(3H)-one]	2430 nM
COc1ccc2c(c1)OC1(CCN(C(=O)c3cccc4cn[nH]c34)CC1)CC2=O [Ex. H21]	2530 nM
O=C1CC2(CCN(C(=O)c3cccc4cn[nH]c34)CC2)Oc2c(Cl)cc(Cl)cc21 [Ex. H22, 6,8-dichloro-1′-(1H-indazol-7-ylcarbonyl)spiro[chromene-2,4′-piperidin]-4(3H)-one]	2660 nM
Cc1cc2c(cc1Cl)C(=O)CC1(CCN(C(=O)c3cc(Br)cc4cn[nH]c34)CC1)O2 [Ex. J1, 1′-[(5-bromo-1H-indazol-7-yl)carbonyl]-6-chloro-7-methylspiro[chromene-2,4′-piperidin]-4(3H)-one]	345 nM
Cc1cc2c(cc1Cl)C(=O)CC1(CCN(C(=O)c3cccc4[nH]ncc34)CC1)O2 [Ex. J2, 6-chloro-1′-(1H-indazol-4-ylcarbonyl)-7-methylspiro[chromene-2,4′-piperidin]-4(3H)-one]	375 nM
Cc1cc2c(cc1C)C(=O)CC1(CCN(C(=O)c3ccc4nn(C)cc4c3)CC1)O2 [Ex. J3, 6,7-dimethyl-1′-[(2-methyl-2H-indazolyl)carbonyl]spiro[chromene-2,4-piperidin]-4(3H)-one]	353 nM
Cc1cc2c(cc1C)C(=O)CC1(CCN(C(=O)c3ccc4[nH]c5c(c4c3)CCNC5=O)CC1)O2 [Ex. K1, 6,7-dimethyl-1′-[(1-oxo-2,3,4,9-tetrahydro-1H-beta-carbolin-6-yl)carbonyl]spiro[chromene-2,4′-piperidin]-4(3H)-one]	9.98 nM
COc1cccc2c1C(=O)CC1(CCN(C(=O)c3ccc4[nH]c5c(c4c3)CCNC5=O)CC1)O2 [Ex. K2, 5-methoxy-1′-[(1-oxo-2,3,4,9-tetrahydro-1H-beta-carbolin-6-yl)carbonyl]spiro[chromene-2,4′-piperidin]-4(3H)-one]	28.8 nM
O=C1CC2(CCN(C(=O)c3ccc4[nH]c5c(c4c3)CCNC5=O)CC2)Oc2ccc(Cl)cc21 [Ex. K3, 6-chloro-1′-[(1-oxo-2,3,4,9-tetrahydro-1H-beta-carbolin-6-yl)carbonyl]spiro[chromene-2,4′-piperidin]-4(3H)-one]	106 nM
Cc1cc2c(cc1C)C(=O)CC1(CCN(C(=O)c3cccc4cc[nH]c34)CC1)O2 [Ex. L1, 1′-(1H-indol-7-ylcarbonyl)-6,7-dimethylspiro[chromene-2,4′-piperidin]-4(3H)-one trifluoroacetic acid salt]	190 nM
Cc1cc2c(cc1C)C(=O)CC1(CCN(C(=O)c3ccc4cc[nH]c4c3)CC1)O2 [Ex. L2, 1′-(1H-indol-6-ylcarbonyl)-6,7-dimethylspiro[chromene-2,4′-piperidin]-4(3H)-one trifluoroacetic acid salt]	155 nM

Source: patent publication US20090270435A1 (priority 2006, published 2009)
